# Experimental data reported in PubChem BioAssay (NCI).
#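 GI50 = concentration required for 50% inhibition of growth. TGI: concentration producing complete growth inhibition.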
# Assays:
# Assay in all cases: NCI-60 cell line screen, 384-well format
# TK-10 renal = tested on: TK-10 renal
# NCI-H23 lung = tested on: NCI-H23 lung
# SW-620 colon = tested on: SW-620 colon
# SK-MEL-28 melanoma = tested on: SK-MEL-28 melanoma
# SR leukemia = tested on: SR leukemia
# MDA-MB-435 melanoma = tested on: MDA-MB-435 melanoma
# MOLT-4 leukemia = tested on: MOLT-4 leukemia
# T-47D breast = tested on: T-47D breast
# COLO 205 colon = tested on: COLO 205 colon
# HS 578T breast = tested on: HS 578T breast
# EKVX NSCLC = tested on: EKVX NSCLC
# SNB-75 CNS = tested on: SNB-75 CNS
# BT-549 breast = tested on: BT-549 breast
# PC-3 prostate = tested on: PC-3 prostate
# SF-268 CNS = tested on: SF-268 CNS
# IGROV1 ovarian = tested on: IGROV1 ovarian
# SK-OV-3 ovarian = tested on: SK-OV-3 ovarian
# SF-295 CNS = tested on: SF-295 CNS
# KM12 colon = tested on: KM12 colon
# HL-60(TB) leukemia = tested on: HL-60(TB) leukemia
# HT29 colon = tested on: HT29 colon
# MDA-MB-468 breast = tested on: MDA-MB-468 breast
# DU-145 prostate = tested on: DU-145 prostate
# SK-MEL-5 melanoma = tested on: SK-MEL-5 melanoma
# NCI-H322M lung = tested on: NCI-H322M lung
# U251 glioblastoma = tested on: U251 glioblastoma
# SF-539 CNS = tested on: SF-539 CNS
# RXF 393 renal = tested on: RXF 393 renal
# A549 NSCLC = tested on: A549 NSCLC
# OVCAR-5 ovarian = tested on: OVCAR-5 ovarian
# K-562 leukemia = tested on: K-562 leukemia
# MALME-3M melanoma = tested on: MALME-3M melanoma
# 786-0 renal = tested on: 786-0 renal
# SK-MEL-2 melanoma = tested on: SK-MEL-2 melanoma
# OVCAR-4 ovarian = tested on: OVCAR-4 ovarian
# NCI-H460 NSCLC = tested on: NCI-H460 NSCLC
# UACC-62 melanoma = tested on: UACC-62 melanoma
# NCI-H522 lung = tested on: NCI-H522 lung
# SNB-19 CNS = tested on: SNB-19 CNS
# M14 melanoma = tested on: M14 melanoma
# A498 renal = tested on: A498 renal
# UACC-257 melanoma = tested on: UACC-257 melanoma
# OVCAR-3 ovarian = tested on: OVCAR-3 ovarian
# CAKI-1 renal = tested on: CAKI-1 renal
# OVCAR-8 ovarian = tested on: OVCAR-8 ovarian
# MDA-MB-231 breast = tested on: MDA-MB-231 breast
# UO-31 renal = tested on: UO-31 renal
# HCT-116 colon = tested on: HCT-116 colon
# SN12C renal = tested on: SN12C renal
# NCI-H226 lung = tested on: NCI-H226 lung
# HOP-92 NSCLC = tested on: HOP-92 NSCLC
# HOP-62 NSCLC = tested on: HOP-62 NSCLC
# ACHN renal = tested on: ACHN renal
# HCT-15 colon = tested on: HCT-15 colon
# MCF7 breast = tested on: MCF7 breast
compound,measurement,setting,value
O=C(Nc1ccc2[nH]nc(-c3ccncc3)c2c1)[C@@H]1CCN(CC(=O)N2CCN(c3ccc(-c4ncccn4)cc3)CC2)C1,GI50,TK-10 renal,0.853 µM
same,TGI,TK-10 renal,> 100 µM
same,GI50,NCI-H23 lung,0.0571 µM
same,TGI,NCI-H23 lung,0.678 µM
same,GI50,SW-620 colon,0.0863 µM
same,TGI,SW-620 colon,> 100 µM
same,GI50,SK-MEL-28 melanoma,0.0186 µM
same,TGI,SK-MEL-28 melanoma,0.174 µM
same,GI50,SR leukemia,2.68 µM
same,TGI,SR leukemia,12 µM
same,GI50,MDA-MB-435 melanoma,0.0652 µM
same,TGI,MDA-MB-435 melanoma,> 100 µM
same,GI50,MOLT-4 leukemia,1.42 µM
same,TGI,MOLT-4 leukemia,3 µM
same,GI50,T-47D breast,2.96 µM
same,TGI,T-47D breast,9.04 µM
same,GI50,COLO 205 colon,0.0281 µM
same,TGI,COLO 205 colon,0.43 µM
same,GI50,HS 578T breast,10.8 µM
same,TGI,HS 578T breast,36 µM
same,GI50,EKVX NSCLC,2.28 µM
same,TGI,EKVX NSCLC,83 µM
same,GI50,SNB-75 CNS,11.6 µM
same,TGI,SNB-75 CNS,25.4 µM
same,GI50,BT-549 breast,2.71 µM
same,TGI,BT-549 breast,16.6 µM
same,GI50,PC-3 prostate,5.37 µM
same,TGI,PC-3 prostate,20.5 µM
same,GI50,SF-268 CNS,17.9 µM
same,TGI,SF-268 CNS,73.4 µM
same,GI50,IGROV1 ovarian,0.438 µM
same,TGI,IGROV1 ovarian,35.7 µM
same,GI50,SK-OV-3 ovarian,20.3 µM
same,TGI,SK-OV-3 ovarian,90.7 µM
same,GI50,SF-295 CNS,13.1 µM
same,TGI,SF-295 CNS,37.8 µM
same,GI50,KM12 colon,5.61 µM
same,TGI,KM12 colon,> 100 µM
same,GI50,HL-60(TB) leukemia,0.0163 µM
same,TGI,HL-60(TB) leukemia,1.26 µM
same,GI50,HT29 colon,0.069 µM
same,TGI,HT29 colon,14.2 µM
same,GI50,MDA-MB-468 breast,3.55 µM
same,TGI,MDA-MB-468 breast,33.8 µM
same,GI50,DU-145 prostate,4.59 µM
same,TGI,DU-145 prostate,> 100 µM
same,GI50,SK-MEL-5 melanoma,0.0781 µM
same,TGI,SK-MEL-5 melanoma,4.43 µM
same,GI50,NCI-H322M lung,0.623 µM
same,TGI,NCI-H322M lung,31.6 µM
same,GI50,U251 glioblastoma,1.79 µM
same,TGI,U251 glioblastoma,22.2 µM
same,GI50,SF-539 CNS,0.69 µM
same,TGI,SF-539 CNS,9.72 µM
same,GI50,RXF 393 renal,1.05 µM
same,TGI,RXF 393 renal,3.55 µM
same,GI50,A549 NSCLC,0.628 µM
same,TGI,A549 NSCLC,> 100 µM
same,GI50,OVCAR-5 ovarian,0.16 µM
same,TGI,OVCAR-5 ovarian,> 100 µM
same,GI50,K-562 leukemia,0.273 µM
same,TGI,K-562 leukemia,12.8 µM
same,TGI,MALME-3M melanoma,0.0442 µM
same,GI50,786-0 renal,9.92 µM
same,TGI,786-0 renal,23.6 µM
same,GI50,SK-MEL-2 melanoma,0.0375 µM
same,TGI,SK-MEL-2 melanoma,0.192 µM
same,GI50,OVCAR-4 ovarian,48.4 µM
same,TGI,OVCAR-4 ovarian,> 100 µM
same,GI50,NCI-H460 NSCLC,0.379 µM
same,TGI,NCI-H460 NSCLC,17.6 µM
same,GI50,UACC-62 melanoma,0.0166 µM
same,TGI,UACC-62 melanoma,0.385 µM
same,GI50,NCI-H522 lung,9.33 µM
same,TGI,NCI-H522 lung,22.1 µM
same,GI50,SNB-19 CNS,> 100 µM
same,TGI,SNB-19 CNS,> 100 µM
same,GI50,M14 melanoma,0.0253 µM
same,TGI,M14 melanoma,0.198 µM
same,GI50,A498 renal,1.78 µM
same,TGI,A498 renal,10 µM
same,GI50,UACC-257 melanoma,0.0268 µM
same,TGI,UACC-257 melanoma,0.271 µM
same,GI50,OVCAR-3 ovarian,19.8 µM
same,TGI,OVCAR-3 ovarian,> 100 µM
same,GI50,CAKI-1 renal,0.507 µM
same,TGI,CAKI-1 renal,20.6 µM
same,GI50,OVCAR-8 ovarian,2.83 µM
same,TGI,OVCAR-8 ovarian,15 µM
same,GI50,MDA-MB-231 breast,0.315 µM
same,TGI,MDA-MB-231 breast,32.9 µM
same,GI50,UO-31 renal,2.28 µM
same,TGI,UO-31 renal,16.1 µM
same,GI50,HCT-116 colon,0.0687 µM
same,TGI,HCT-116 colon,1.26 µM
same,GI50,SN12C renal,2.28 µM
same,TGI,SN12C renal,> 100 µM
same,GI50,NCI-H226 lung,0.735 µM
same,TGI,NCI-H226 lung,14.6 µM
same,GI50,HOP-92 NSCLC,0.417 µM
same,TGI,HOP-92 NSCLC,2.18 µM
same,GI50,HOP-62 NSCLC,0.661 µM
same,TGI,HOP-62 NSCLC,17.4 µM
same,GI50,ACHN renal,8.76 µM
same,TGI,ACHN renal,> 100 µM
same,GI50,HCT-15 colon,5.45 µM
same,TGI,HCT-15 colon,29.1 µM
same,GI50,MCF7 breast,11.6 µM
same,TGI,MCF7 breast,26.9 µM
